Results: patent US20250134849A1, “PHARMACEUTICAL COMPOSITION FOR PREVENTING OR TREATING OCULAR DISEASE COMPRISING ENAVOGLIFLOZIN” (DAEWOONG THERAPEUTICS INC., priority 2023, published 2025)

System: Macular Degeneration Animal Model
Test: Laser-induced macular degeneration animal model, fundus fluorescein angiography
Assay type: in vivo, Chinchilla rabbits
Details: intravitreal injection 2000 μg, n=5
Experimental: Chinchilla rabbits (n=24, male) were raised at a temperature of 23±3° C., relative humidity of 55±15%, ventilation frequency of 10 to 20 times/hr, lighting time of 12 hours, and illuminance of 150 to 300 Lux. The environmental conditions such as temperature/humidity of the animal room, ventilation frequency and illuminance were measured regularly during the raising period. During the acclimation, administration, and observation periods, the rabbits were raised in a stainless-steel breeding box (W500×L800×H500 mm) at 1 animal per breeding box. The breeding boxes were cleaned every day and water bottles were exchanged every day. […]
On the 7th and 14th days after the start of administration in each group, a mydriatic agent (Mydriacyl® Eye Drops 1%) was instilled into the right eye of the rabbits, followed by anesthetizing. […] The efficacies were evaluated through retinal fundus fluorescein angiography. It was confirmed that the fluorescence intensity levels on days 7 and 14 in all macular degeneration-induced groups were higher than those in the normal control groups, G5 and G6 (p<0.001 or p<0.05).
The average fluorescence intensities of the vehicle-administered groups (G7 and G8) were set to 100% and the relative levels (%) of the fluorescence intensities measured in each animal were analyzed. […]

Aflibercept [Comparative Example 2] was tested. Which “Fluorescence intensity at Day 7 (%), Mean” value (day 7, relative to vehicle group G7 = 100%) did it give?
The value was 93.345%.

And the “Fluorescence intensity at Day 14 (%), Mean” value (day 14, relative to vehicle group G8 = 100%)?
The value was 69.403%.
